Data taken from patent publication US20020169183A1, “Acridines as stimulators for Fas-mediated apoptosis” (priority 2001, published 2002).

Assays:
Hepatocytes = experiment: Fas-dependent apoptosis by FACS analysis (DNA fragmentation, propidium iodide; annexin V); assay type: cell-based; conditions: at 10 μM
Protocol: Assays for Fas-dependent apoptosis are known in the art. See, for example, Ruiz-Ruiz et al, Cell Death Diff. 6:271 (1999); and Muller et al., […]. 188:2033 (1998).
Apoptosis is identified by detection of the DNA fragmentation pattern characteristic of apoptotic cell death. In this Example, apoptosis is detected and measured by FACS® analysis carried out in a FACScan® flow cytometer (Becton Dickinson) using CellQuest software. Quantification of DNA fragmentation is performed by FACS® analysis of propidium iodide-stained nuclei as described in Nicolletti et al., J. Immunol. Methods 139:271-279 (1991). Hepatocytes floating in the culture medium are collected by centrifugation at 200× g. Adherent hepatocytes are harvested by incubation with 1% trypsin for 1 min. The cells are washed in phosphate-buffered saline (PBS), suspended in hypotonic lysis buffer (0.1% sodium citrate, 0.1% Triton X, and […] propidium iodide) (Sigma) and incubated at 4° C. for 6 hours. Cells are then analyzed for DNA content by flow cytometry.
Early apoptotic changes are identified using annexin V-Fluos (Boehringer Mannheim) which binds to phosphatidylserine molecules (PS) exposed on apoptotic, but not normal, cell membranes (PS is normally restricted to the inner leaflet of the cell membrane bilayer). […] Cells are incubated for 10-15 min and analyzed on a flow cytometer using CellQuest software. […]

Synoviocytes = experiment: Stimulation of Fas-mediated apoptosis: XTT cell viability with anti-human Fas antibody h-HFE7A, stimulation index; assay type: cell-based; conditions: 10 μM compound with h-HFE7A 1000 ng/mL, synoviocytes from rheumatoid arthritis patients, 16 hours
Source text: Anti-human Fas antibody h-HFE7A, humanized antibody was obtained from Sankyo Co., Ltd. This antibody induces apoptosis when cross-linked with secondary antibody in vitro.
Samples of human synovium were obtained from rheumatoid arthritis patients at the time of total knee replacement surgery or synoviectomy. Synovial tissue was minced into small pieces and was digested with collagenase and cultured in Ham's F12 medium supplemented with 10% fetal bovine serum (F10F) in a humidified 5% CO2 atmosphere at 37° C. Adherent cells were considered as synoviocytes and were cultivated in F10F.
Cell viability was determined with the XTT method described in Cancer Res. 48:4827 (1988). Ninety-six well flat plates were precoated with anti-human IgG. h-HFE7A (1000 ng/mL) and/or 10 μM of a compound of this invention were added and incubated for 2 hours. Synoviocytes were seeded (10,000/well) and incubated for 16 hours. Background wells received culture medium only. XTT (2,3-Bis[2-methoxy-4-nitro-sulfophenyl]-2H-tetrazolium-5-carboxanilide), final concentration 200 μg/mL, and phenazine methosulfate, final concentration 5 μM, were added to each well, and further incubated for 4 hours. The absorbance at 450 nm was measured and cell viability was determined as follows: [formula]
Enhancement of Fas-mediated apoptosis by compounds of this invention was determined by the stimulation index (SI): [formula] […]

CCN(CC)CCCNc1c2ccccc2nc2ccccc12 [Compound 3, 9-[(3-diethylaminopropyl)amino]acridine]
stimulation of Fas-dependent apoptosis (Hepatocytes): shows stimulation | Enhancement of Fas-mediated apoptosis, stimulation index (SI) (Synoviocytes): positive (An SI over 2.0 was considered positive)
